Activity calls are given as the source filed them. The calls are words filed in the database; no cut-off is given here.
Experiments:
[1] = molecular target: Fibroblast growth factor receptor 2 (Homo sapiens, UniProt P21802); type: ADME
[2] = molecular target: Fibroblast growth factor receptor 3 (Homo sapiens, UniProt P22607)
[3] = molecular target: T1, Fibroblast growth factor receptor 4 (Homo sapiens, UniProt P22455)
[4] = molecular target: Fibroblast growth factor receptor 1 (Homo sapiens, UniProt P11362)
[5] = molecular target: T2, MAP kinase-activated protein kinase 2 (Homo sapiens, UniProt P49137); assay: Inhibition of human MK2 by [gamma33P]ATP assay
Target sequence in this assay (P49137 whole entry): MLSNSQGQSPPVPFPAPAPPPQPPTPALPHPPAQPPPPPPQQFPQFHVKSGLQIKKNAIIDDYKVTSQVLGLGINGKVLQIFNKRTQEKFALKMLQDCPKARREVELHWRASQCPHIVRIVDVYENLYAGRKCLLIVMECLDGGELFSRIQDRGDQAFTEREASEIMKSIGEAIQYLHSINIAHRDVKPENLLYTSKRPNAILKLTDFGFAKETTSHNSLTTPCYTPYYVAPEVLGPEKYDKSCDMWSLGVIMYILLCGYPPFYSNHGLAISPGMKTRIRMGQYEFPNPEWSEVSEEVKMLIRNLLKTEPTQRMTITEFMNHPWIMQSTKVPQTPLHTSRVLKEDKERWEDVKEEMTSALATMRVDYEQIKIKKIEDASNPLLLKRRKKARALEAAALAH

[6] = molecular target: T2, MAP kinase-activated protein kinase 2; assay: Inhibition of human MK2 at 10 uM by [gamma33P]ATP assay
Target sequence in this assay (P49137 whole entry, looked up): as the sequence (P49137 whole entry) above

[7] = molecular target: Fibroblast growth factor receptor 4 (Homo sapiens, UniProt P22455, C552A)
[8] = molecular target: T1, Fibroblast growth factor receptor 4; remark: listed apart in the source
[9] = molecular target: Fibroblast growth factor receptor 4 (Homo sapiens, UniProt P22455, C477A)
Fibroblast growth factor receptor 4 (Homo sapiens, UniProt P22455, C477A), sequence (P22455 22-802 C477A limits assumed): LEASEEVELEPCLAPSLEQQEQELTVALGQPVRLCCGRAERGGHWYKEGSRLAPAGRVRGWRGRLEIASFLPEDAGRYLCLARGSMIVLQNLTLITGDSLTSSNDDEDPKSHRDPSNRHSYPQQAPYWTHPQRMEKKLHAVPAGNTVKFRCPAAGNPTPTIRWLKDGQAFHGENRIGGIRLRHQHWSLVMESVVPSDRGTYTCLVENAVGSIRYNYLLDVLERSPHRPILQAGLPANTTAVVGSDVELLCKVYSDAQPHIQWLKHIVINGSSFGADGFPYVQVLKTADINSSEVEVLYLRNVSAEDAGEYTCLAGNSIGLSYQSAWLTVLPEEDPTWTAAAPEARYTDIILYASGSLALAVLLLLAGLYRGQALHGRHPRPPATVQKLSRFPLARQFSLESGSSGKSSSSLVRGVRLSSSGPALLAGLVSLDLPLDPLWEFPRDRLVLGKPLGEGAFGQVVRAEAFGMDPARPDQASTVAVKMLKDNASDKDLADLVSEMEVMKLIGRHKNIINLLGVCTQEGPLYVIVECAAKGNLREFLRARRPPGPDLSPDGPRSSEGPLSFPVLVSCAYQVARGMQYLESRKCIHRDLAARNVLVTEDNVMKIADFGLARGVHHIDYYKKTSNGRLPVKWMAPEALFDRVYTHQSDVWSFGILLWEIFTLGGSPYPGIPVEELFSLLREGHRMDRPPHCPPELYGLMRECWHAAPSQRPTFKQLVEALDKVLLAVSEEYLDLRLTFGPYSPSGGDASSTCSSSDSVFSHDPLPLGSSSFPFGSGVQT

T1 sequence (P22455 whole entry): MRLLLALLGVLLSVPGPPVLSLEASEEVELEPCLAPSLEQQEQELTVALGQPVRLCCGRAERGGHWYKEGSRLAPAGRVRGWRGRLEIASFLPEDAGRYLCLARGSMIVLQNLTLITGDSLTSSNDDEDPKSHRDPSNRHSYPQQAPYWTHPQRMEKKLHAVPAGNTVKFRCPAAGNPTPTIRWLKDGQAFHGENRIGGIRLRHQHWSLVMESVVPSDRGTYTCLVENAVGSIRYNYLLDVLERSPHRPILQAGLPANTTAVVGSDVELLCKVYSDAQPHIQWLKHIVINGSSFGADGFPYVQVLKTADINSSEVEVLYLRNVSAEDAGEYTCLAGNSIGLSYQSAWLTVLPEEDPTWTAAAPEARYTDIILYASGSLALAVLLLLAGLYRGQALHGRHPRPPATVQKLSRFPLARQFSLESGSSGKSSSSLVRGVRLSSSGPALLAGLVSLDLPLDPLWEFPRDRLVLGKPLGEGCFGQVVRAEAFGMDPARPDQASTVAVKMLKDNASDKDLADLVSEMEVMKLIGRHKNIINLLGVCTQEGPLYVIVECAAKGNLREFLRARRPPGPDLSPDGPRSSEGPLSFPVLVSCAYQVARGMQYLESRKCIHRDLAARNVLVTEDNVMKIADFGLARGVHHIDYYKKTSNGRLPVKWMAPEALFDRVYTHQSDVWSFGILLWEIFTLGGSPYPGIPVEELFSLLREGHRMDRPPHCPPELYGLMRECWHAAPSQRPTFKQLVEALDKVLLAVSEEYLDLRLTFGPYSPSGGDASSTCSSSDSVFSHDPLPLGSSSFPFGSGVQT
Fibroblast growth factor receptor 2, sequence (P21802 whole entry): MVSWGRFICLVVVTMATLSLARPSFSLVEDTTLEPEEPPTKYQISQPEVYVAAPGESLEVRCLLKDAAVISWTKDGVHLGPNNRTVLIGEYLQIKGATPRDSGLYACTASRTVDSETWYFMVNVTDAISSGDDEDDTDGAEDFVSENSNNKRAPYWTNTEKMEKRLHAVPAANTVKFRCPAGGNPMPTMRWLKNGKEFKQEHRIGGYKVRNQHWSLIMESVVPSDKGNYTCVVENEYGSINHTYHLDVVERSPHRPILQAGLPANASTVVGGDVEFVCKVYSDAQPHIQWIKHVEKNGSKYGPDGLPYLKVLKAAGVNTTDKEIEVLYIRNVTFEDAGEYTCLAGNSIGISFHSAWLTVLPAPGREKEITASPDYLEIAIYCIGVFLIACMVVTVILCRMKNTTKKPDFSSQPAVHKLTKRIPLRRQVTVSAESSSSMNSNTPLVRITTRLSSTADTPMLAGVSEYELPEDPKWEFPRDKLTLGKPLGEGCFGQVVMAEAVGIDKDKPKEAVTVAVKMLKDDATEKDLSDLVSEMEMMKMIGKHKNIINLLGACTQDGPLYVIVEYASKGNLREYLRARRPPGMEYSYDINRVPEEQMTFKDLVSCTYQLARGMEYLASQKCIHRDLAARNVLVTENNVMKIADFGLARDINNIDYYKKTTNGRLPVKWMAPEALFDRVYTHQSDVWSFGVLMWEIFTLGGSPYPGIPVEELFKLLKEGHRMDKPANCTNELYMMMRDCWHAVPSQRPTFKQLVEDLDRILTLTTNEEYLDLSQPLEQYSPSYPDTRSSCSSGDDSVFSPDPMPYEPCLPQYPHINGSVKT
Fibroblast growth factor receptor 1, sequence (P11362 whole entry): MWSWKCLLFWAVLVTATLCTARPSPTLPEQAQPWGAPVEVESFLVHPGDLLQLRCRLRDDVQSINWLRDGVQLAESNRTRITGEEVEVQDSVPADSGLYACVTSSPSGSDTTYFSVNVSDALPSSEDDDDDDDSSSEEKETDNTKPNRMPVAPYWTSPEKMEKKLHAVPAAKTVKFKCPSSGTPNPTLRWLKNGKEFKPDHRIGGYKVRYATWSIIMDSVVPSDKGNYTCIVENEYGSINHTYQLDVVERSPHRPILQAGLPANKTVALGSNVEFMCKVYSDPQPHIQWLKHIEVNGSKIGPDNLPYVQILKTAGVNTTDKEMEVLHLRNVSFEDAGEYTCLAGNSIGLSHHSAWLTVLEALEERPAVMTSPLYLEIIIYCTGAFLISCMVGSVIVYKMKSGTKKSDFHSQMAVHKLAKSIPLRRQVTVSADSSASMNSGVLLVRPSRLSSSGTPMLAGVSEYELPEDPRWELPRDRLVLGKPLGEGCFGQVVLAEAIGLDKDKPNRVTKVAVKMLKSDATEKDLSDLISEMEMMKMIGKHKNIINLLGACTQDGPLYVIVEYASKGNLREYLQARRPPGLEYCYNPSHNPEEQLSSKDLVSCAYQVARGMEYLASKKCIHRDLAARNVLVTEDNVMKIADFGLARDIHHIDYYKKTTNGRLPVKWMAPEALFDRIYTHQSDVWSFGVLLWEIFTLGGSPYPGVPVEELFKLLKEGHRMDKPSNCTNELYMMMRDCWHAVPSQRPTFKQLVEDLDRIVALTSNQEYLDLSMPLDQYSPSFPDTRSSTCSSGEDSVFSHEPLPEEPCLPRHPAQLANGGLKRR
Fibroblast growth factor receptor 3, sequence (P22607 whole entry): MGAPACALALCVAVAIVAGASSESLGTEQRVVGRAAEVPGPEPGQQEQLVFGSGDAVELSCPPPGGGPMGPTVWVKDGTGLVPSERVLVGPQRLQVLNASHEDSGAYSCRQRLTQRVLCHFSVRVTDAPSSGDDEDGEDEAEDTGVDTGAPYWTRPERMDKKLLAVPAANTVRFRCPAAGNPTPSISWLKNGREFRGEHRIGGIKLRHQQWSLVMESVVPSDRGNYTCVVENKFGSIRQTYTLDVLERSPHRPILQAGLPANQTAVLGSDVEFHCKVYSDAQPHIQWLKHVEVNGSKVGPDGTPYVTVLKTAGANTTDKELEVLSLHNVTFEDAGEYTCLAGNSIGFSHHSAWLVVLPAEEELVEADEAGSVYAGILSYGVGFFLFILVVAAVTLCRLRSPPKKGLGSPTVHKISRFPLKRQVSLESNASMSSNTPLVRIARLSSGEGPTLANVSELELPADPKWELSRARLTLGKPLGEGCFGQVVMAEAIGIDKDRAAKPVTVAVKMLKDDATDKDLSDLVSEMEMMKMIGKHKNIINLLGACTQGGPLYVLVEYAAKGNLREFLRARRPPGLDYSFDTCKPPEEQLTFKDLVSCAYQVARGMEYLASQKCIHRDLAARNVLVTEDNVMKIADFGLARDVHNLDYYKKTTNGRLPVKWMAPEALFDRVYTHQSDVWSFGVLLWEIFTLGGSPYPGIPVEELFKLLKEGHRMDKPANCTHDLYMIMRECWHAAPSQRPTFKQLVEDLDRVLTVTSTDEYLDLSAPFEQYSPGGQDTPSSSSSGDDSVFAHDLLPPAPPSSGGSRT
Fibroblast growth factor receptor 4 (Homo sapiens, UniProt P22455, C552A), sequence (P22455 22-802 C552A limits assumed): as the sequence (P22455 22-802 C477A limits assumed) above, with A456C, C531A counted along it

SMILES	IC50 [1]	IC50 [2]	IC50 [3]	IC50 [4]	IC50 [5]	inhibition [6]	IC50 [7]	IC50 [8]	IC50 [9]
CC(C)Oc1cc(N2CCC(N3CCN(C)CC3)CC2)ccc1Nc1ncc(Cl)c(Nc2ccccc2S(=O)(=O)C(C)C)n1	4.43 µM	8 µM	0.029 µM	6.35 µM					
O=Cc1ccc2cccc(C(=O)Nc3ccc(C(F)(F)F)cn3)c2n1	> 10 µM	> 10 µM		> 10 µM	2.3 µM	Active			
O=C(Nc1ccc(C(F)(F)F)cn1)c1cccc2cccnc12							> 10 µM	> 10 µM	> 10 µM
O=[N+]([O-])c1ccc(Cl)nc1Nc1ncc(C(F)(F)F)cc1Cl	> 10 µM	> 10 µM		> 10 µM					
CC(C)COc1cc(N2CCC(N(C)C)CC2)ccc1Nc1ncc(C#N)c(N[C@H]2[C@@H](C(N)=O)[C@@H]3C=C[C@H]2C3)n1	0.363 µM	3.5 µM							
C=CC(=O)Nc1cccc(C)c1Nc1ncc2cc(-c3c(Cl)c(OC)cc(OC)c3Cl)ccc2n1	1.7 µM	0.78 µM		3.2 µM					
O=Cc1ccc2cccc(C(=O)Nc3ccc(C(F)(F)F)cc3)c2n1							> 10 µM	> 10 µM	> 10 µM
